Reference: the supplement of paper PMC10307832

Legend:
Experiment in all cases: relative viability (nuclei count vs DMSO), 5 days (fraction); higher = more cells survive
[1] = compound: C1/C(=C\C2=CC=CS2)/C(=O)/C(=C/C3=CC=CS3)/C1 + CCNC(=O)c1noc(-c2cc(C(C)C)c(O)cc2O)c1-c1ccc(CN2CCOCC2)cc1 [Luminespib] (partner 0.01 µM)
Outline: (§1)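 Dosing by pin tool came one day after lung cancer cell lines were seeded in 1536-well plates, using either one drug or a fixed anchor-drug dose plus five library-drug doses (not always all listed) in √10 steps. After 5 days, nuclei were counted on 4× images. Relative viability is treated-well nuclei count divided by vehicle-well nuclei count, and values are medians of duplicate plates.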

[2] = compound: C1/C(=C\C2=CC=CS2)/C(=O)/C(=C/C3=CC=CS3)/C1 + CS(=O)(=O)CCNCc1ccc(-c2ccc3ncnc(Nc4ccc(OCc5cccc(F)c5)c(Cl)c4)c3c2)o1 [Lapatinib] (partner 2 µM)
Outline: as §1

[3] = compound: C1/C(=C\C2=CC=CS2)/C(=O)/C(=C/C3=CC=CS3)/C1 + NC(=O)Nc1cc(-c2cccc(F)c2)sc1C(=O)N[C@H]1CCCNC1 [AZD7762] (partner 0.2 µM)
Outline: as §1

[4] = compound: C[C@]12O[C@H](C[C@]1(O)CO)n1c3ccccc3c3c4c(c5c6ccccc6n2c5c31)CNC4=O [Lestaurtinib] + CS(=O)(=O)N1CCN(Cc2cc3nc(-c4cccc5[nH]ncc45)nc(N4CCOCC4)c3s2)CC1 [Pictilisib] (partner 1 µM)
Outline: as §1

Cell Line	relative viability ([1]; first compound 0.2 µM)	relative viability ([1]; first compound 0.6325 µM)	relative viability ([1]; first compound 2 µM)	relative viability ([1]; first compound 6.325 µM)	relative viability ([1]; first compound 20 µM)	relative viability ([2]; first compound 0.2 µM)	relative viability ([2]; first compound 0.6325 µM)	relative viability ([2]; first compound 2 µM)	relative viability ([2]; first compound 6.325 µM)	relative viability ([2]; first compound 20 µM)	relative viability ([3]; first compound 0.2 µM)	relative viability ([3]; first compound 0.6325 µM)	relative viability ([3]; first compound 2 µM)	relative viability ([3]; first compound 6.325 µM)	relative viability ([3]; first compound 20 µM)	relative viability ([4]; first compound 0.005 µM)	relative viability ([4]; first compound 0.01581 µM)	relative viability ([4]; first compound 0.05 µM)	relative viability ([4]; first compound 0.1581 µM)	relative viability ([4]; first compound 0.5 µM)
NCI-H650	0.901	0.701	0.826	0.735	0.944	0.944	1.17	1.05	0.925	0.989	1.14	0.952	0.897	0.937	1.11	0.816	0.818	0.63	0.399	0.332
NCI-H1355	0.71	0.7	0.733	0.687	0.662	0.964	0.951	1.04	0.908	0.911	0.69	0.835	0.804	0.559	0.622	0.412	0.363	0.314	0.389	0.273
NCI-H838	0.387	0.253	0.309	0.222	0.281	1.01	0.889	0.994	0.926	0.866	0.967	0.949	0.933	0.875	0.841	0.492	0.479	0.378	0.309	0.169
LK-2	0.166	0.187	0.177	0.202	0.212	0.897	0.887	1.2	1.05	0.988	0.548		0.562	0.408	0.421	0.57	0.648	0.481	0.433	0.28
NCI-H322M	0.994	0.831	0.938	0.812	0.745	0.619	0.648	0.657	0.568	0.582	0.491	0.58	0.484	0.518	0.521	0.493	0.5	0.445	0.443	0.401
NCI-H1395	0.743	0.701	0.704	0.738	0.663	1.04	1.13	1.11	0.886	1.15	0.36	0.356	0.405	0.411	0.414	0.597	0.542	0.536	0.463	0.405
